According to US20100003217A1, “Compounds and Pharmaceutical Compositions for the Treatment of Viral Infections” (priority 2008, published 2010):
Where “and” joins values, the source holds several entries; their conditions need not be identical. Equal entries are not always repeated. One block for each compound: values may come before it.

Columns and labels:
[1] = Stability in monkey liver microsomes; format: in vitro ADME; conditions: 10 μM; for % Residual Compound 1 / % Residual Compound 2: monkey liver microsomes 1 mg/mL; for % Residual Compound 2: 15 min
Procedure: Disappearance of parent Compound 1 was used to evaluate the in vitro metabolism thereof. Relative levels of unchanged Compound 1 were measured by HPLC-UV method 1. Residual Compound 1 is reported as percent difference from time zero or control. The HPLC-UV system was as follows:
Incubations with liver microsomes or cytosol were conducted in a final volume of 0.1 mL per incubation time point. […] DMSO (final DMSO concentration was 0.1%) was incubated at 37° C. from 0-60 min with pooled microsomal protein (1.0 mg/mL), suspended in incubation buffer (0.1 M potassium phosphate, pH 7.4, 5 mM MgCl2, and 0.1 mM EDTA). The microsomal reaction was initiated by the addition of NADPH (3 mM final concentration). Incubations with (a) no protein or (b) no NADPH served as controls. Reactions were terminated by the addition of 0.2 mL of stop solution (acetonitrile). The samples were vortex-mixed for 30 sec and then centrifuged at 10,000×g for 10 min. The supernatant was dried using a Labconco CentriVap concentrator and the dry residue reconstituted in water, transferred to an HPLC glass vial and analyzed by HPLC-UV method 1 (described above).
Metabolic stability of the proposed metabolites was conducted by incubating the chemically synthesized standards Compound 2, Compound 4 and Compound 3 as described above for Compound 1. When possible, formation of Compound 5 was verified by incubating samples with alkaline phosphatase (10 U) for 60 min at 37° C.

[2] = system: human primary hepatocytes; assay: Metabolic disposition of [^14C]-Compound 1 and [^14C]-2′-C-methyl guanosine in human primary hepatocytes (incubation medium, cellular extracts, nucleotide levels); format: in vitro ADME
Method in brief: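 Rat, monkey or human primary hepatocytes on collagen I plates (1.6 million cells/mL) were incubated at 37° C with 1 or 10 μM C-8 [^14C]-labelled compound or 2′-C-methyl guanosine for 1, 4, 8 and 24 hours. Medium and 70% methanol cell extracts were analysed by LSC and radio-HPLC. Nucleotides were identified by alkaline phosphatase treatment and retention-time matching to standards.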

[3] = human hepatocytes (Hu759, Hu775), 10 μM [^14C]-Compound 1, 1 h
[4] = human hepatocytes (Hu759, Hu775), 10 μM [^14C]-Compound 1, 24 h
[5] = human hepatocytes (Hu775), 1 μM [^14C]-Compound 1, 1 h
[6] = human hepatocytes (Hu775), 1 μM [^14C]-Compound 1, 8 h
[7] = human hepatocytes (Hu775), 1 μM [^14C]-Compound 1, 24 h

Structure (SMILES): CC(C)(CO)C(=O)SCCOP(=O)(NCc1ccccc1)OC[C@H]1O[C@@H](n2cnc3c(=O)[nH]c(N)nc32)[C@](C)(O)[C@@H]1O (mixture of isomers) [Compound 1, 3-hydroxy-2,2-dimethyl-thiopropionic acid S-(2-{[(2R,3R,4R,5R)-5-(2-amino-6-oxo-1,6-dihydro-purin-9-yl)-3,4-dihydroxy-4-methyl-tetrahydro-furan-2-ylmethoxy]-benzylamino-phosphoryloxy}-ethyl) ester]
% Residual Compound 1 ([1]; 0 min, NADPH): 100% | % Residual Compound 1 ([1]; 0 min, No Cofactor): 100% | % Residual Compound 1 ([1]; 30 min, NADPH): 0% | % Residual Compound 1 ([1]; 30 min, No Cofactor): 81% | % Residual Compound 1 ([1]; 60 min, NADPH): 0% | NADPH-dependent metabolism ([1]; monkey liver microsomes, NADPH, 30 min): 100% | metabolites observed in cellular extracts (% of total radioactivity) [2, 3]: 31.1% and 23.9% | metabolites observed in cellular extracts (% of total radioactivity) ([2]; human hepatocytes (Hu759, Hu775), 10 μM [^14C]-Compound 1, 4 h): 8.48% and 6.96% | metabolites observed in cellular extracts (% of total radioactivity) [2, 4]: 1.38% and 1.59% | metabolites observed in cellular extracts (% of total radioactivity) [2, 5]: 19.9% | metabolites observed in cellular extracts (% of total radioactivity) [2, 6]: 4.07% | metabolites observed in cellular extracts (% of total radioactivity) [2, 7]: 2.78% | decrease in Compound 1 medium levels ([2]; human hepatocytes, 10 μM, 24 hours): 38% | % Residual [^14C]-Compound 1 in incubation medium ([2]; human primary hepatocytes (n=1), 1 μM, 0 h): 97% | % Residual [^14C]-Compound 1 in incubation medium ([2]; human primary hepatocytes (n=1), 1 μM, 1 h): 100% | % Residual [^14C]-Compound 1 in incubation medium ([2]; human primary hepatocytes (n=1), 1 μM, 8 h): 78% | % Residual [^14C]-Compound 1 in incubation medium ([2]; human primary hepatocytes (n=1), 1 μM, 24 h): 51% | % Residual [^14C]-Compound 1 in incubation medium ([2]; human primary hepatocytes (n=2), 10 μM, 0 h): 97% and 98% | % Residual [^14C]-Compound 1 in incubation medium ([2]; human primary hepatocytes (n=2), 10 μM, 1 h): 94% and 97% | % Residual [^14C]-Compound 1 in incubation medium ([2]; human primary hepatocytes (n=2), 10 μM, 4 h): 91% | % Residual [^14C]-Compound 1 in incubation medium ([2]; human primary hepatocytes (n=2), 10 μM, 8 h): 84% and 79% | % Residual [^14C]-Compound 1 in incubation medium ([2]; human primary hepatocytes (n=2), 10 μM, 24 h): 63% and 60%

% Residual Compound 2 ([1]; NADPH): 19% | % Residual Compound 2 ([1]; No Cofactor): 0% | metabolites observed in cellular extracts (% of total radioactivity) [2, 3]: 6.50% and 2.30% | metabolites observed in cellular extracts (% of total radioactivity) ([2]; human hepatocytes (Hu759, Hu775), 10 μM [^14C]-Compound 1, 8 h): BLD | metabolites observed in cellular extracts (% of total radioactivity) [2, 4]: BLD | metabolites observed in medium (% of total radioactivity) ([2]; human hepatocytes (Hu775), 1 μM [^14C]-Compound 1, 0 h): 2.22% | metabolites observed in cellular extracts (% of total radioactivity) [2, 5]: 4.94% | metabolites observed in medium (% of total radioactivity) [2, 5]: BLD | metabolites observed in cellular extracts (% of total radioactivity) [2, 6]: BLD | metabolites observed in medium (% of total radioactivity) [2, 6]: 2.27% | metabolites observed in cellular extracts (% of total radioactivity) [2, 7]: BLD | metabolites observed in medium (% of total radioactivity) [2, 7]: 1.7% and 1.72% | metabolites observed in medium (% of total radioactivity) ([2]; human hepatocytes (lots Hu759, Hu775), 10 μM [^14C]-Compound 1, 0 h): 2.7% and 1.1% | metabolites observed in medium (% of total radioactivity) ([2]; human hepatocytes (lots Hu759, Hu775), 10 μM [^14C]-Compound 1, 4 h): 1.8% and 0.8% | metabolites observed in medium (% of total radioactivity) ([2]; human hepatocytes (lots Hu759, Hu775), 10 μM [^14C]-Compound 1, 8 h): 2.6% and 0.6% | metabolites observed in medium (% of total radioactivity) ([2]; human hepatocytes (lots Hu759, Hu775), 10 μM [^14C]-Compound 1, 24 h): 2.7% and 0.7%
Structure (SMILES): C[C@@]1(O)[C@H](O)[C@@H](COP(=O)(O)NCc2ccccc2)O[C@H]1n1cnc2c(=O)[nH]c(N)nc21 [Compound 2, [(2R)-2-methyl-β-D-ribofuranosyl]guanine-N-benzylaminyl-5′-monophosphate]
